# Target: T1, KDM4A (Homo sapiens, UniProt O75164)
# T1 construct: N-terminal His-tagged KDM4A^1-350 was purchased from BPS Biosciences; His (N); purchased BPS Biosciences
# T1 sequence (O75164 1-350): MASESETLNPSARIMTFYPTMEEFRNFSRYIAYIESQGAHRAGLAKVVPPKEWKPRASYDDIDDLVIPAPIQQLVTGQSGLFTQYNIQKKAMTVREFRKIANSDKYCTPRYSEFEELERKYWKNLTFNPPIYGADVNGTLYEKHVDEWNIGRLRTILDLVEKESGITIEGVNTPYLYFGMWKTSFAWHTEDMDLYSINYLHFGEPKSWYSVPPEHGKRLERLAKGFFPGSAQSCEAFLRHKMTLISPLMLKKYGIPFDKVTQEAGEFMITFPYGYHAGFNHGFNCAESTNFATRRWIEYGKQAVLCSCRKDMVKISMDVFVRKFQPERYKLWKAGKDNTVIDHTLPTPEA
# Assay: KDM4A Assay (SAMDI mass spectrometry demethylase assay)
# Format: biochemical
# Conditions: N-terminal His-tagged KDM4A 1-350; class symbols; read-out: 4A IC50
# Method: N-terminal His-tagged KDM4A^1-350 was purchased from BPS Biosciences. Peptides were synthesized by BioPeptide and all other reagents were purchased from Sigma-Aldrich at the highest level of purity possible. Assays were performed in a 50 μL volume in 384-well V-bottom polypropylene microplates (Greiner) at 25° C. Optimized 1× assay buffer was 50 mM HEPES (pH=8.0), 100 μM sodium ascorbate, 20 mM NaCl, 10 μM ammonium iron sulfate, 1 mM tris(2-carboxyethyl)phosphine (TCEP), 0.002% Tween-20, and 0.005% BSG. For compound screening, 35 μL of KDM4A^1-350 (final concentration, f.c.=5 nM) was added using a Multidrop Combi and preincubated with 1 μL of test compound (f.c.=10 μM) for 30 minutes and subsequently 15 μL of peptide with the following sequence NH2-ARTKQTAR(Kme2)STGGKAPRKQLA(K-Ahx-Biotin)-amide (f.c.=600 nM) and 2-oxoglutarate (f.c.=5 μM) was added by Multidrop Combi to begin the reaction. Reactions proceeded for 120 minutes and were stopped by the addition of 5 μL of formic acid (f.c.=0.5%) using a Multidrop Combi and then analyzed by SAMDI Tech Inc.
# SAMDI Tech analyzed all reactions using self-assembled monoloayer desorption/ionization technology as previously described (Gerard-Levin Z A, Scholle M D, Eisenberg A H, et al.: High-throughput screening of small molecule libraries using SAMDI mass spectrometry. ACS Comb Sci 2011; 13:347-350). Briefly, a 2 μL sample of the stopped demethylase reactions were transferred to a SAMDI array coated with 384 biotin-neutravidin spots using a 384-channel pipet station. The SAMDI arrays were incubated for 1 h in a humidified chamber, followed by washing of the surface with deionized ultra-filtered water (DIUF) and drying under nitrogen. A matrix of 30 mg/ml 2′,4′,6′-Trihydroxyacetophenone monohydrate (THAP) in acetone was applied using a TPP Mosquito 1.2 μL tip by dispensing 50 nL on each of the 384 spots on the array. SAMDI-MS was run using acquisition method ReflectorPositiveUTX. The % conversion of substrate to product was calculated using the AUC of the substrate and product peptide peaks.
# An IC50 value was determined by contacting various concentrations of a test compound with one of the KDM4A, KDM4C or KDMSC enzyme constructs and plotting a dose-response curve which associates the amount of inhibition of the enzyme relative to the concentration of the test compound. From the curve, the IC50 value (which represents the concentration of the test compound necessary to inhibit maximal enzymatic activity by 50%) was determined. Additionally, the slope of the linear range of the plotted curve, which indicates the speed with which the curve rises between the minimum and maximum, was calculated.
row,SMILES,IC50 [µM]
1,"Cn1ncc(-c2cccc(F)c2)c1Nc1cnccc1C(=O)O [Compound 10, 3-((4-(3-Fluorophenyl)-1-methyl-1H-pyrazol-5-yl)amino) isonicotinic acid]",1 to 10
2,"COC(=O)c1ccncc1Nc1cnn(C2CCN(C(C)C)CC2)c1C [Compound 103, methyl 3-((1-(1-isopropylpiperidin-4-yl)-5-methyl-1H-pyrazol-4-yl)amino)isonicotinate]",10 to 100
3,"O=C(O)c1ccncc1Nc1cn(CCN2CCC(F)(F)CC2)nc1-c1ccccc1 [Compound 17, 3-((1-(2-(4,4-Difluoropiperidin-1-yl)ethyl)-3-phenyl-1H-pyrazol-4-yl)amino)isonicotinic acid]",1 to 10
4,"CN1CCN(CCn2cc(-c3ccccc3)c(Nc3cnccc3C(=O)O)n2)CC1 [Compound 34, 3-((1-(2-(4-Methylpiperazin-1-yl)ethyl)-4-phenyl-1H-pyrazol-3-yl)amino)isonicotinic acid]",1 to 10
5,Cn1cc(-c2ccccc2)c(Nc2cnccc2C(=O)O)n1 [Compound 3],1 to 10
6,"O=C(O)c1ccncc1Nc1cc(-c2ccccc2)nn1C1CCOCC1 [Compound 23, 3-((3-Phenyl-1-(tetrahydro-2H-pyran-4-yl)-1H-pyrazol-5-yl)amino)isonicotinic acid]",1 to 10
7,NCCn1nc(-c2ccccc2)cc1Nc1cnccc1C(=O)O [Compound 26],1 to 10
8,"Cc1n[nH]c(C)c1Nc1cnccc1C(=O)O [Compound 16, 3-((3,5-Dimethyl-1H-pyrazol-4-yl)amino)isonicotinic acid]",1 to 10
9,"CN(C)CCCn1ncc(-c2ccccc2)c1Nc1cnccc1C(=O)O [Compound 52, 3-((1-(3-(dimethylamino)propyl)-4-phenyl-1H-pyrazol-5-yl)amino) isonicotinic acid]",1 to 10
10,"O=C(O)c1ccncc1Nc1cc(-c2ccccc2)nn1[C@H]1CC[C@@H](O)CC1 [Compound 40, 3-((1-((cis)-4-Hydroxycyclohexyl)-3-phenyl-1H-pyrazol-5-yl)amino)isonicotinic acid]",1 to 10
11,"Cc1nn(C2CCCN(C)CC2)cc1Nc1cnccc1C(=O)O (centres unmarked) [Compound 111, 3-(3-methyl-1-(1-methylazepan-4-yl)-1H-pyrazol-4-ylamino) isonicotinic acid]",0.1 to 1
12,"Cc1nn(-c2ccccc2C#N)cc1Nc1cnccc1C(=O)O [Compound 70, 3-((1-(2-cyanophenyl)-3-methyl-1H-pyrazol-4-yl)amino) isonicotinic acid]",0.1 to 1
13,"Cc1nn(C2CCNCC2)cc1Nc1cnccc1C(=O)O [Compound 69, 3-((3-methyl-1-(piperidin-4-yl)-1H-pyrazol-4-yl)amino) isonicotinic acid]",0.1 to 1
14,"O=C(O)c1ccncc1Nc1cc(-c2ccccc2)nn1-c1ccccc1 [Compound 21, 3-((1,3-Diphenyl-1H-pyrazol-5-yl)amino)isonicotinic acid]",1 to 10
15,"Cc1c(Nc2cnccc2C(=O)O)cnn1C1CCNCC1 [Compound 68, 3-((5-methyl-1-(piperidin-4-yl)-1H-pyrazol-4-yl)amino)isonicotinic acid]",0.1 to 1
16,"N[C@H]1CC[C@H](n2nc(-c3ccccc3)cc2Nc2cnccc2C(=O)O)CC1 [Compound 38, 3-((1-((trans)-4-aminocyclohexyl)-3-phenyl-1H-pyrazol-5-yl)amino)isonicotinic acid]",10 to 100

# The remaining lines, values ahead:
row,IC50 [µM],SMILES
1,0.1 to 1,Cc1c(Nc2cnccc2C(=O)O)cnn1C1CCN(C(C)C)CC1 [Compound 104]
2,0.1 to 1,"COCCn1nc(-c2ccccc2)cc1Nc1cnccc1C(=O)O [Compound 27, 3-((1-(2-Methoxyethyl)-3-phenyl-1H-pyrazol-5-yl)amino) isonicotinic acid]"
3,0.001 to 0.1,"Cc1c(Nc2cnccc2C(=O)O)cnn1[C@H]1CC[C@@H](N)CC1 [Compound 79, 3-((1-((cis)-4-aminocyclohexyl)-5-methyl-1H-pyrazol-4-yl)amino)isonicotinic acid]"
4,0.1 to 1,"Cn1nc(-c2ccc(Cl)cc2)cc1Nc1cnccc1C(=O)O [Compound 24, 3-((3-(4-Chlorophenyl)-1-methyl-1H-pyrazol-5-yl)amino) isonicotinic acid]"
5,0.1 to 1,"COc1ccccc1-n1cc(C)c(Nc2cnccc2C(=O)O)n1 [Compound 63, 3-((1-(2-methoxyphenyl)-4-methyl-1H-pyrazol-3-yl)amino) isonicotinic acid]"
6,0.1 to 1,"Cn1cc(-c2ccccc2F)c(Nc2cnccc2C(=O)O)n1 [Compound 11, 3-((4-(2-Fluorophenyl)-1-methyl-1H-pyrazol-3-yl)amino) isonicotinic acid]"
7,0.001 to 0.1,"Cc1c(Nc2cnccc2C(=O)O)cnn1Cc1ccccc1 [Compound 33, 3-((1-benzyl-5-methyl-1H-pyrazol-4-yl)amino)isonicotinic acid]"
8,0.001 to 0.1,"CNC(=O)c1ccc(-n2ncc(Nc3cnccc3C(=O)O)c2C)cc1 [Compound 58, 3-((5-methyl-1-(4-(methylcarbamoyl)phenyl)-1H-pyrazol-4-yl)amino) isonicotinic acid]"
9,0.001 to 0.1,"Cc1c(Nc2cnccc2C(=O)O)nn(CCN2CCC(F)(F)CC2)c1-c1ccccc1 [Compound 67, 3-((1-(2-(4,4-difluoropiperidin-1-yl)ethyl)-4-methyl-5-phenyl-1H-pyrazol-3-yl)amino)isonicotinic acid]"
10,0.001 to 0.1,"Cc1nn(-c2ccccc2)cc1Nc1cnccc1C(=O)O [Compound 19, 3-((3-Methyl-1-phenyl-1H-pyrazol-4-yl)amino)isonicotinic acid]"
11,0.001 to 0.1,"Cc1cn(-c2ccccc2)nc1Nc1cnccc1C(=O)O [Compound 62, 3-((4-methyl-1-phenyl-1H-pyrazol-3-yl)amino) isonicotinic acid]"
12,0.001 to 0.1,"Cc1c(Nc2cnccc2C(=O)O)cnn1-c1ccccc1 [Compound 20, 3-((5-methyl-1-phenyl-1H-pyrazol-4-yl)amino)isonicotinic acid]"
13,0.001 to 0.1,"Cc1nn(-c2ccccc2)c(C)c1Nc1cnccc1C(=O)O [Compound 77, 3-((3,5-dimethyl-1-phenyl-1H-pyrazol-4-yl)amino)isonicotinic acid]"
14,0.1 to 1,"O=C(O)c1ccncc1Nc1nn(CCN2CCC(F)(F)CC2)cc1-c1ccc(F)cc1 [Compound 45, 3-((1-(2-(4,4-difluoropiperidin-1-yl)ethyl)-4-(4-fluorophenyl)-1H-pyrazol-3-yl)amino)isonicotinic acid]"
15,0.1 to 1,"Cc1cc(Nc2cnccc2C(=O)O)nn1-c1ccccc1 [Compound 60, 3-((5-methyl-1-phenyl-1H-pyrazol-3-yl)amino)isonicotinic acid]"
16,0.1 to 1,"O=C(O)c1ccncc1Nc1cn(-c2ccccc2)nc1-c1ccccc1 [Compound 41, 3-((1,3-Diphenyl-1H-pyrazol-4-yl)amino)isonicotinic acid]"
17,0.1 to 1,Cc1cn(-c2ccccc2)c(Nc2cnccc2C(=O)O)n1 [Compound 2]
18,0.1 to 1,"CCn1nc(-c2ccccc2)cc1Nc1cnccc1C(=O)O [Compound 36, 3-((1-Ethyl-3-phenyl-1H-pyrazol-5-yl)amino)isonicotinic acid]"
19,0.1 to 1,"Cc1nn(C2CCCNCC2)cc1Nc1cnccc1C(=O)O (single isomer, unassigned) [Compound 114]"
20,0.1 to 1,"Cc1nn(-c2ccc(O)cc2)c(C)c1Nc1cnccc1C(=O)O [Compound 76, 3-((1-(4-hydroxyphenyl)-3,5-dimethyl-1H-pyrazol-4-yl)amino)isonicotinic acid]"
21,0.1 to 1,"Cc1cn(-c2ccccc2C#N)nc1Nc1cnccc1C(=O)O [Compound 71, 3-((1-(2-cyanophenyl)-4-methyl-1H-pyrazol-3-yl)amino) isonicotinic acid]"
22,0.1 to 1,"CN1CCN(CCn2ncc(-c3ccccc3)c2Nc2cnccc2C(=O)O)CC1 [Compound 35, 3-((1-(2-(4-methylpiperazin-1-yl)ethyl)-4-phenyl-1H-pyrazol-5-yl)amino)isonicotinic acid]"

# Reference: patent publication US20170291890A1 (Epizyme, Inc., priority 2014, published 2017)
